Consider 1 molecule from patent publication US7442541B2, “β-glucan-containing fat and oil composition and novel microorganism capable of producing β-glucan” (Adeka Corporation, priority 2002, dated 2008).

Common to all, as to assay: Cycloheximide resistance test
Common to all, as to assay type: cell-based

One experiment deals with ADK-4. As to conditions: strain ADK-4, YM agar, 26° C., 10 days. The procedure: (§1) The strains obtained by the screening in Test Examples 1 and 2 and IFO-4466, IFO-6353, and IFO-7757 purchased from Institute for Fermentation, Osaka, i.e., were tested for cycloheximide resistance as follows. Each strain was grown on YM agar medium (Difco) at 26° C. for 5 days. YM agar media (Difco) containing 5, 10, 20, 40, and 80 μg/ml of cycloheximide were prepared. The grown strain was inoculated into each of the cycloheximide-containing media using a sterile toothpick and incubated at 26° C. for 10 days. The plates were examined for colonies. The diameters of the colonies, if formed, were measured.

Another experiment concerns ADK-27. Particulars: strain ADK-27, YM agar, 26° C., 10 days. The procedure:
as §1

The subject of the next experiment is ADK-20. Particulars: strain ADK-20, YM agar, 26° C., 10 days. The procedure:
as §1

The next experiment deals with ADK-10. As to conditions: strain ADK-10, YM agar, 26° C., 10 days. The procedure:
as §1

For the molecule `C[C@@H]1C[C@@H]([C@H](O)CC2CC(=O)NC(=O)C2)C(=O)[C@@H](C)C1` [Cycloheximide, cycloheximide], the Colony diameter in the experiment with ADK-4 (cycloheximide 5 μg/ml) is 8.5 mm; with ADK-4 (cycloheximide 10 μg/ml), 0 mm; in the experiment with ADK-4 (cycloheximide 20 μg/ml), 0 mm; in the experiment with ADK-4 (cycloheximide 40 μg/ml), 0 mm; in the experiment on ADK-4 (cycloheximide 80 μg/ml), 0 mm; in the experiment on ADK-27 (cycloheximide 5 μg/ml), 10.3 mm. In addition, the Colony diameter in the experiment with ADK-27 (cycloheximide 10 μg/ml) is listed as 0 mm; in the experiment with ADK-27 (cycloheximide 20 μg/ml), 0 mm; in the experiment with ADK-27 (cycloheximide 40 μg/ml), 0 mm; with ADK-27 (cycloheximide 80 μg/ml), 0 mm; in the experiment on ADK-20 (cycloheximide 5 μg/ml), 6.2 mm; in the experiment on ADK-20 (cycloheximide 10 μg/ml), 0 mm. Moreover, the Colony diameter worked out at 0 mm in the experiment on ADK-20 (cycloheximide 20 μg/ml); 0 mm in the experiment with ADK-20 (cycloheximide 40 μg/ml); 0 mm in the experiment with ADK-20 (cycloheximide 80 μg/ml); 8.5 mm in the experiment with ADK-10 (cycloheximide 5 μg/ml); 0 mm with ADK-10 (cycloheximide 10 μg/ml); 0 mm with ADK-10 (cycloheximide 20 μg/ml). The Colony diameter in the experiment on ADK-10 (cycloheximide 40 μg/ml) and in the experiment on ADK-10 (cycloheximide 80 μg/ml) was 0 mm each time.
